Holding throughout (format): cell-based
The target of one assay is T1, alpha2A receptor (Homo sapiens, UniProt P08913).
T1 construct: expressed in transfected cells; host or cells: NIH-3T3
T1 sequence (P08913 1-465): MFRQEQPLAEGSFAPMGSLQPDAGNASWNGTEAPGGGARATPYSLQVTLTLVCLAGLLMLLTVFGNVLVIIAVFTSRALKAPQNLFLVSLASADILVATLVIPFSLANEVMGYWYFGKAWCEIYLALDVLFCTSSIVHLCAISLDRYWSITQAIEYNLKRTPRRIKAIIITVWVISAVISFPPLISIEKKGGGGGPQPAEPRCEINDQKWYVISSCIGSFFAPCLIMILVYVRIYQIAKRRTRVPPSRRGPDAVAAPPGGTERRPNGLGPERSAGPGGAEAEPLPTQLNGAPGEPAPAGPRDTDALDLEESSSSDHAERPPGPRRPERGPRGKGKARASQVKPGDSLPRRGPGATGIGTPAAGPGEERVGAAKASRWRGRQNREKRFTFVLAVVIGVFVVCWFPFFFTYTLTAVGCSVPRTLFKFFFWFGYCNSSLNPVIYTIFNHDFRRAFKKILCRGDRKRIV
In words: RSAT assay (Receptor Selection and Amplification Technology), alpha2A. Particulars: value in parentheses; ratio of maximal effect to that of standard full agonist brimonidine (UK14304). As for the experimental part: (§1) Receptor Selection and Amplification Technology (RSAT) Assay
(§2) The RSAT assay measures a receptor-mediated loss of contact inhibition that results in selective proliferation of receptor-containing cells in a mixed population of confluent cells. The increase in cell number is assessed with an appropriate transfected marker gene such as β-galactosidase, the activity of which can be easily measured in a 96-well format. Receptors that activate the G protein, Gq, elicit this response. Alpha2 receptors, which normally couple to Gi, activate the RSAT response when coexpressed with a hybrid Gq protein that has a Gi receptor recognition domain, called Gq/i5.
NIH-3T3 cells are plated at a density of 2×10^6 cells in 15 cm dishes and maintained in Dulbecco's modified Eagle's medium supplemented with 10% calf serum. […] After washing with phosphate-buffered saline, β-galactosidase enzyme activity is determined by adding 200 μl of the chromogenic substrate (consisting of 3.5 mM o-nitrophenyl-β-D-galactopyranoside and 0.5% nonidet P-40 in phosphate buffered saline), incubating overnight at 30° C. and measuring optical density at 420 nm. The absorbance is a measure of enzyme activity, which depends on cell number and reflects a receptor-mediated cell proliferation. […]

In the next assay the target is T2, alpha2B receptor (Homo sapiens, UniProt P18089).
T2 construct: expressed in transfected cells; host or cells: NIH-3T3
T2 sequence (P18089 1-450): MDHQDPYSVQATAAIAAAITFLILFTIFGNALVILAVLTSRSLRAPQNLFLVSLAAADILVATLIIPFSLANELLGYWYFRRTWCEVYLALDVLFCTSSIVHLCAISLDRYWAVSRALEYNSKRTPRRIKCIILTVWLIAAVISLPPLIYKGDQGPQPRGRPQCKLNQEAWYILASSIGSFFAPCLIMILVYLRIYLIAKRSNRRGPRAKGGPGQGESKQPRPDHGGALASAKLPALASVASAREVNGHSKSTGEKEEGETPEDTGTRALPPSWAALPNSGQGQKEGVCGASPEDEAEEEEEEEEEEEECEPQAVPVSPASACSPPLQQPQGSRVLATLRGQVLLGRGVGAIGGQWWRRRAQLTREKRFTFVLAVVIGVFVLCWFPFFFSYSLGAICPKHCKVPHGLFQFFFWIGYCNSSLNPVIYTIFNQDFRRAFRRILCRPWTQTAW
In words: RSAT assay (Receptor Selection and Amplification Technology), alpha2B. Particulars: for EC50: NIH-3T3 cells cotransfected with receptor and Gq/i5, read-out: Alpha 2B potency EC50; for Alpha 2B intrinsic activity (efficacy): value in parentheses, ratio of maximal effect to that of standard full agonist brimonidine (UK14304). As to the method: as §1, §2
(§3) NIH-3T3 cells are plated at a density of 2×10^6 cells in 15 cm dishes and maintained in Dulbecco's modified Eagle's medium supplemented with 10% calf serum. One day later, cells are cotransfected by calcium phosphate precipitation with mammalian expression plasmids encoding p-SV-β-galactosidase (5-10 μg), receptor (1-2 μg) and G protein (1-2 μg). 40 μg salmon sperm DNA may also be included in the transfection mixture. Fresh media is added on the following day and 1-2 days later, cells are harvested and frozen in 50 assay aliquots. Cells are thawed and 100 μl added to 100 μl aliquots of various concentrations of drugs in triplicate in 96-well dishes. Incubations continue 72-96 hr at 37° C. After washing with phosphate-buffered saline, β-galactosidase enzyme activity is determined by adding 200 μl of the chromogenic substrate (consisting of 3.5 mM o-nitrophenyl-β-D-galactopyranoside and 0.5% nonidet P-40 in phosphate buffered saline), incubating overnight at 30° C. and measuring optical density at 420 nm. The absorbance is a measure of enzyme activity, which depends on cell number and reflects a receptor-mediated cell proliferation. The efficacy or intrinsic activity is calculated as a ratio of the maximal effect of the drug to the maximal effect of a standard full agonist for each receptor subtype. Brimonidine, also called UK14304, the chemical structure of which is shown below, is used as the standard agonist for the alpha2A, alpha2B and alpha2c receptors. The EC50 is the concentration at which the drug effect is half of its maximal effect.
(§4) EC50 values are nanomolar. ND stands for “not determinable” at concentrations less than 10 micromolar. IA stands for “intrinsic activity.”

A further assay concerns the target T3, alpha2c receptor (Homo sapiens, UniProt P18825).
T3 construct: expressed in transfected cells; host or cells: NIH-3T3
T3 sequence (P18825 1-462): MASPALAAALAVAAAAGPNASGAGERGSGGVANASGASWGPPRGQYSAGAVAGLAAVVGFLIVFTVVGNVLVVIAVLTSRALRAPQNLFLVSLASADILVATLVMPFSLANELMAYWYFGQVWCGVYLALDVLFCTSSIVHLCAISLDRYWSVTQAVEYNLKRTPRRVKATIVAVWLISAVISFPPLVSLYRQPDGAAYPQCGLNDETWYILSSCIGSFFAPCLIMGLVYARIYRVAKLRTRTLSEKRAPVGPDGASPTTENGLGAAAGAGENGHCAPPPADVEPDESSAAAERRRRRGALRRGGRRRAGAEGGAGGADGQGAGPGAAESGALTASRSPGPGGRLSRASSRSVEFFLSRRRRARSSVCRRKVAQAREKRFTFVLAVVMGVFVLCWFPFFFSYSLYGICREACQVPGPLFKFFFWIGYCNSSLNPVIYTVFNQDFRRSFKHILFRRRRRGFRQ
In words: RSAT assay (Receptor Selection and Amplification Technology), alpha2C. Particulars: for EC50: NIH-3T3 cells cotransfected with receptor and Gq/i5, read-out: Alpha 2C potency EC50; for Alpha 2C intrinsic activity (efficacy): value in parentheses, ratio of maximal effect to that of standard full agonist brimonidine (UK14304). As to the method:
as §1, §2, §3, §4

Molecules are shown by their SMILES.

The source of these data is patent publication US8124774B2, “Therapeutic ((phenyl)imidazolyl)methylquinolinyl compounds” (Allergan, Inc., priority 2007, dated 2012).

In general, EC50 refers to the concentration giving half of the maximal effect.

As for `c1ccc(C(c2cnc[nH]2)c2cccc3cccnc23)cc1` (stereo not shown) [8-((1H-imidazol-5-yl)(phenyl)methyl)quinoline], the “Alpha 2A intrinsic activity (efficacy)” value on alpha2A receptor was determined as 0.09. Moreover, at alpha2B receptor, the 50% effective concentration (EC50) was 23 nM and the “Alpha 2B intrinsic activity (efficacy)” value is given as 1.16. Moreover, at alpha2c receptor, the EC50 amounted to 832 nM and the “Alpha 2C intrinsic activity (efficacy)” value is recorded as 0.61.

For the compound `c1ccc(C(c2cnc[nH]2)c2cccc3ncccc23)cc1` (stereo not shown) [5-((1H-imidazol-5-yl)(phenyl)methyl)quinoline], the “Alpha 2A intrinsic activity (efficacy)” value on alpha2A receptor is given as 0.12. Further, at alpha2B receptor, the EC50 amounted to 319 nM and the “Alpha 2B intrinsic activity (efficacy)” value was 0.89. Also, at alpha2c receptor, the EC50 was 50 nM and the “Alpha 2C intrinsic activity (efficacy)” value was found to be 0.33.
